Test results as given in the NIST ThermoML archive (doi:10.1016/j.jct.2017.02.023).

Columns and labels:
[1] = xn = mol fraction of the nth substance listed; conditions: 81.5 kPa, Liquid, Vibrating tube method
[2] = refractive index (Na D-line) (dimensionless); xn = mol fraction of the nth substance listed; conditions: 81.5 kPa, Liquid, Standard Abbe refractometry

CNC1CCCCC1 [N-methylcyclohexylamine] + CCCCCC(C)O
Conditions	mass density, 298.15 K [kg/m3]	mass density, 308.15 K [kg/m3]	mass density, 318.15 K [kg/m3]	mass density, 328.15 K [kg/m3]	refractive index, 298.15 K	refractive index, 308.15 K	refractive index, 318.15 K	refractive index, 328.15 K
[1], x2 = 0	865.2	856.57	847.67	838.68	–	–	–	–
[1], x2 = 0.0812	861.21	852.71	843.93	835.06	–	–	–	–
[1], x2 = 0.1624	857.38	848.98	840.27	831.44	–	–	–	–
[1], x2 = 0.2448	853.62	845.28	836.62	827.83	–	–	–	–
[1], x2 = 0.3273	849.83	841.57	832.96	824.22	–	–	–	–
[1], x2 = 0.4098	845.9	837.7	829.15	820.48	–	–	–	–
[1], x2 = 0.486	842.05	833.91	825.44	816.83	–	–	–	–
[1], x2 = 0.5764	837.18	829.14	820.75	812.23	–	–	–	–
[1], x2 = 0.6517	832.93	824.98	816.67	808.22	–	–	–	–
[1], x2 = 0.7435	827.66	819.81	811.59	803.21	–	–	–	–
[1], x2 = 0.8282	822.84	815.09	806.94	798.61	–	–	–	–
[1], x2 = 0.9132	818.13	810.46	802.36	794.07	–	–	–	–
[2], x2 = 0	–	–	–	–	1.45306	1.44812	1.4431	1.43809
[2], x2 = 0.0812	–	–	–	–	1.45091	1.44613	1.44128	1.43645
[2], x2 = 0.1624	–	–	–	–	1.44856	1.44387	1.4391	1.43432
[2], x2 = 0.2448	–	–	–	–	1.44622	1.44158	1.43686	1.43214
[2], x2 = 0.3273	–	–	–	–	1.44391	1.43933	1.43466	1.42997
[2], x2 = 0.4098	–	–	–	–	1.44151	1.43699	1.43236	1.42773
[2], x2 = 0.486	–	–	–	–	1.43911	1.43464	1.43007	1.4255
[2], x2 = 0.5764	–	–	–	–	1.43598	1.43158	1.42708	1.42258
[2], x2 = 0.6517	–	–	–	–	1.43316	1.42882	1.42438	1.41996
[2], x2 = 0.7435	–	–	–	–	1.42959	1.42534	1.421	1.41664
[2], x2 = 0.8282	–	–	–	–	1.42631	1.42213	1.41786	1.41356
[2], x2 = 0.9132	–	–	–	–	1.423	1.41886	1.41462	1.41037

CNC1CCCCC1 [N-methylcyclohexylamine] + CCCCCCC(C)O
Conditions	mass density, 298.15 K [kg/m3]	mass density, 308.15 K [kg/m3]	mass density, 318.15 K [kg/m3]	mass density, 328.15 K [kg/m3]	refractive index, 298.15 K	refractive index, 308.15 K	refractive index, 318.15 K	refractive index, 328.15 K
[1], x2 = 0	865.2	856.57	847.67	838.68	–	–	–	–
[1], x2 = 0.0727	861.37	852.86	844.07	835.18	–	–	–	–
[1], x2 = 0.148	857.59	849.18	840.45	831.62	–	–	–	–
[1], x2 = 0.2246	853.95	845.6	836.92	828.14	–	–	–	–
[1], x2 = 0.3025	850.34	842.06	833.44	824.7	–	–	–	–
[1], x2 = 0.3826	846.62	838.42	829.86	821.17	–	–	–	–
[1], x2 = 0.4636	842.77	834.65	826.15	817.53	–	–	–	–
[1], x2 = 0.5484	838.61	830.58	822.16	813.61	–	–	–	–
[1], x2 = 0.6332	834.36	826.43	818.08	809.6	–	–	–	–
[1], x2 = 0.7205	829.99	822.17	813.9	805.49	–	–	–	–
[1], x2 = 0.8128	825.54	817.82	809.62	801.27	–	–	–	–
[1], x2 = 0.9052	821.3	813.66	805.52	797.23	–	–	–	–
[2], x2 = 0	–	–	–	–	1.45306	1.44812	1.4431	1.43809
[2], x2 = 0.0727	–	–	–	–	1.45123	1.44643	1.44156	1.43676
[2], x2 = 0.148	–	–	–	–	1.44931	1.44459	1.43978	1.43507
[2], x2 = 0.2246	–	–	–	–	1.44739	1.44272	1.43794	1.43327
[2], x2 = 0.3025	–	–	–	–	1.44545	1.44084	1.43612	1.43148
[2], x2 = 0.3826	–	–	–	–	1.44348	1.43892	1.43425	1.42963
[2], x2 = 0.4636	–	–	–	–	1.44143	1.43692	1.43233	1.42778
[2], x2 = 0.5484	–	–	–	–	1.43898	1.43456	1.43003	1.42554
[2], x2 = 0.6332	–	–	–	–	1.43641	1.43207	1.42763	1.42323
[2], x2 = 0.7205	–	–	–	–	1.4337	1.42942	1.42503	1.42073
[2], x2 = 0.8128	–	–	–	–	1.43079	1.42658	1.42227	1.41802
[2], x2 = 0.9052	–	–	–	–	1.42779	1.42366	1.41941	1.41523
